This is an account of results in patent publication US10864168B2, “Bioactive delivery vehicles” (The Regents of the University of California, priority 2014, dated 2020).

One data set concerns inactivated yeast. Kind of data set: Encapsulation of bioactives into inactivated yeast cells (conventional diffusion, vacuum infusion, pressure). The class given is physicochemical, Saccharomyces cerevisiae. From the text:
Prior to encapsulation of bioactives, selected strains of both yeast and algal cells are inactivated with a chemical treatment. Chemical inactivation of yeast or algal cells stops the metabolic processes while preserving the structure and chemical composition of the cells. […] The concentration of ethanol is selected based on the results of the previous study. Briefly, 1 gm of yeast or algal cells pellet is suspended in the 35% ethanolic solution of the selected bioactive compound. […] We have determined the % ethanol to achieve sufficient encapsulation of the selected encapsulated bioactive compounds using both the vacuum and high pressure assisted encapsulation process. Yeast or algal cell samples suspended in the ethanolic solution with the bioactive compound are sealed in boilable vacuum bags (Prime Source) at 99% vacuum (Ultravac 250, Koch Equipment LLC). […] The sealed samples are covered with aluminum foil to prevent any photo-degradation of the bioactives and incubated at room temperature (25° C.) for 10 minutes. Samples are emptied into 50 mL centrifuge tubes, centrifuged at 2200 rpm for 10 minutes to pellet the cells and the pelleted cells are washed twice with ethanolic solution (35%) and then five times with excess water to remove unencapsulated bioactives. […] Samples are emptied into 50 mL centrifuge tubes, centrifuged to pellet the cells (2200 rpm for 10 minutes) and the pelleted cells are washed twice with ethanolic solution (35%) and then five times with excess water to remove unencapsulated bioactives. Briefly, yeast or algal samples in a 35% ethanolic solution of the selected bioactive compound are covered with a single layer of aluminum foil to prevent photolysis. Samples are then placed into a rotary incubator at 50° C. and 200 rpm for 24 hours. After removal from the incubator, cells are removed by centrifugation at 2000 rpm for 10 minutes. The supernatant is decanted to isolate the pelleted cells and the pelleted cells are washed as described above to remove unencapsulated bioactives. Cells are sonicated to disrupt the cellular structure. A methanol extraction is utilized to extract the encapsulated bioactives from the disrupted yeast or algal cells. 0.05 g of cells (wet basis) with encapsulated bioactives are sonicated to disrupt cellular structure and subsequently incubated with 1 mL methanol. Samples are then briefly vortexed and centrifuged at 14,000 rpm for 10 minutes. The concentration of bioactive compound dissolved in the organic phase is measured using UV-vis spectrophotometer. […] Measuring loading of these bioactive compounds in various emulsions and nanoparticles has been described. The encapsulation efficiency is determined as follows: [formula] where CE is the mass of extracted bioactive from the cells after encapsulation and CT is the amount of bioactive initially added to the cells. We have developed an innovative bioencapsulation process that provides rapid and efficient infusion of bioactives in isolated cells and lipid bodies. In this process, yeast or algal cells incubated in a solution containing bioactive were subjected to a vacuum (97% vacuum) or mild-high hydrostatic pressure (35-100 MPa) for ˜5-10 minutes. […] The results of these measurements were compared with the conventional process used for encapsulation of bioactive compounds in yeast cells.

The test system of another data set is E. coli (BL21). Kind of data set: Encapsulation efficiency into bacteria by vacuum infusion. It counts as physicochemical. To be noted: vacuum infused, 35% ethanol.
For a further data set, the system named is L. casei (S1). The data set is described as above. To be noted: vacuum infused, 35% ethanol. The class given is physicochemical, Lactobacillus casei.
The next data set relates to porcine skin. The experiment in a line: Nile Red release from yeast encapsulation system into porcine skin. As to conditions: yeast microcapsules loaded with Nile Red; room temperature, 12 hours. The protocol: The Nile Red fluorescence signal contrast of porcine skin incubated with yeast encapsulation system and non-incubated porcine skin was evaluated. Yeast microcapsules were loaded with Nile Red dye and spread on porcine skin surface. After incubation at room temperature for 12 hours, fluorescence images were taken on the 20 μm-thick slice of tissue cross-section. The results are depicted in FIG. 17. […] This encapsulation system thus provides an option for convenient, pain-free and efficient compound delivery, which can be self-administered and operate as an alternative to oral dosing or injections.

Data set [1] can be described thus: Storage stability of encapsulated retinol at room temperature, exposure to atmospheric oxygen. To be noted: cell-based encapsulants / lipid membrane microcapsules. The class given is physicochemical. An excerpt: FIG. 10 illustrates stability of retinol encapsulated yeast cells as compared to retinol in emulsion and nanoparticles at room temperature. Stability of all-trans retinol encapsulated in casein stabilized emulsion, zein nanoparticles and yeast cells. The percent recovery of retinol in model systems after exposure to atmospheric oxygen is shown. Yeast cells provided the most stability to retinol, nearly 100% up to 5 days, while zein and casein systems have <10% after 4 days.
Retinol was selected as a model bioactive as it is highly susceptible to oxidative degradation at room temperature.

A short description of data set [2]: Thermal stability of retinol, cell encapsulated versus emulsions. It counts as physicochemical. To be noted: vacuum and/or HPP infusion methods, compared to emulsions. The protocol: Comparative percent recovery of retinol in emulsions and yeast after processing at 70° C. for 30 minutes. The retinol was extracted using methanol and the absorbance was measured at 325 nm.

[3] abbreviates: 100 mM PBS, pH = 6.5, Conventional Diffusion, saturated solution, 35% v/v ethanol.
The mark [4] stands for this setting: 100 mM PBS, pH = 6.5, HPP (200 MPa), saturated solution, 35% v/v ethanol.
[5] abbreviates: 100 mM PBS, pH = 6.5, Vacuum Infusion, saturated solution, 35% v/v ethanol.
The mark [6] stands for this setting: 2% Tween 20 in 100 mM Tris Buffer, pH = 8, Conventional Diffusion, saturated solution, 35% v/v ethanol.
Where [7] appears, read: 2% Tween 20 in 100 mM Tris Buffer, pH = 8, HPP (200 MPa), saturated solution, 35% v/v ethanol.
Where [8] appears, read: 2% Tween 20 in 100 mM Tris Buffer, pH = 8, Vacuum Infusion, saturated solution, 35% v/v ethanol.
The mark [9] stands for this setting: Conventional Diffusion, Single Loading.
The mark [10] stands for this setting: Vacuum, Dual Loading (curcumin and fisetin added together).
The mark [11] stands for this setting: commercial yeast, 1 vacuum cycle, 35% ethanol.
Where [12] appears, read: commercial yeast, 3 cycles of 99% vacuum, 5 min incubation between, no additional fisetin added.
Setting [13] is: inactivated yeast, Conventional Methods, 24 hours, 50° C.
Where [14] appears, read: inactivated yeast, Mild Pressure (35 Mpa), 10 minutes.
The mark [15] stands for this setting: inactivated yeast, Vacuum (5 minutes).

For `O=c1c(O)c(-c2ccc(O)c(O)c2)oc2cc(O)ccc12` [Fisetin, fisetin], the “Encapsulation Efficiency” value with inactivated yeast (setting [3]) is 42.6%; in the data set on inactivated yeast (setting [4]), 99.3%; with inactivated yeast (setting [5]), 105.3%; in the data set with inactivated yeast (setting [6]), 58.7%; in the data set with inactivated yeast (setting [7]), 54.8%; in the data set on inactivated yeast (setting [8]), 80.7%. Further, the “Encapsulation Efficiency” value was 12.2% in the data set with inactivated yeast (setting [9]), 96.0% with inactivated yeast (setting [10]), 30.8% in the data set on E. coli (BL21) and 43.2% in the data set with L. casei (S1). Further, the “Mass of Encapsulated Bioactive in Yeast” value in the data set with inactivated yeast (setting [3]) is reported as 1.11 mg/g; with inactivated yeast (setting [4]), 2.59 mg/g; in the data set with inactivated yeast (setting [5]), 2.75 mg/g; with inactivated yeast (setting [6]), 2.31 mg/g; in the data set on inactivated yeast (setting [7]), 2.16 mg/g; in the data set on inactivated yeast (setting [8]), 3.18 mg/g. Moreover, the “Mass of Encapsulated Bioactive in Yeast” value with inactivated yeast (setting [9]) was 0.061 mg/g; with inactivated yeast (setting [10]) it was 0.480 mg/g; with inactivated yeast (setting [11]), 3.65 mg/g; in the data set with inactivated yeast (setting [12]), 4.01 mg/g. Besides, the “Encapsulated Efficiency” value with inactivated yeast (setting [11]) is reported as 69.5%; with inactivated yeast (setting [12]) it was 76.4%. For the same molecule, the “encapsulation efficiency (percent ratio of encapsulated bioactive with respect to total bioactive in solution)” value with inactivated yeast (setting [13]) turned out to be 11%; in the data set on inactivated yeast (setting [14]) it was 68%; with inactivated yeast (setting [15]), 64%. Further, the “encapsulation efficiency relative to conventional diffusion techniques” value with inactivated yeast (inactivated yeast, vacuum or HPP) is given as 1.4-2.3 ×. For the same molecule, the “Mass of Encapsulated Bioactive in Bacteria” value in the data set with E. coli (BL21) is given as 1.619 mg/g; in the data set on L. casei (S1), 2.271 mg/g.

Turning to `CCN(CC)c1ccc2nc3c4ccccc4c(=O)cc-3oc2c1` [Nile Red], the “release and permeation into porcine skin” value in the data set with porcine skin was “effectively released from yeast cells, further permeated crossing the stratum corneum and reached the dermis layer”.

On to `CC1=C(/C=C/C(C)=C/C=C/C(C)=C/CO)C(C)(C)CCC1` [Retinol, retinol], for which the figures for the “encapsulation efficiency (percent ratio of encapsulated bioactive with respect to total bioactive in solution)” value with inactivated yeast (setting [13]), with inactivated yeast (setting [14]) and in the data set with inactivated yeast (setting [15]) were 15%, 70% and 45%, respectively. For the same molecule, in data set [1], the “improvement of storage stability as compared to other encapsulation systems, including nanoparticles and emulsions” value was “at least 5 fold”. The “reduction of loss of retinol during thermal processing” value in data set [2] is listed as 25-30%.
